# Results reported in patent US20250230193A1, “CYCLIC COMPOUND HAVING SELECTIVE KRAS INHIBITORY EFFECT ON HRAS AND NRAS” (CHUGAI SEIYAKU KABUSHIKI KAISHA, priority 2022, published 2025).
# Where a SMILES comes first, the peptide text is derived from it. Bridges are numbered along the chain shown (N, C = ends). [ ]: non-standard residue; d: D form. The star is where a group is joined. hPhe(3-Cl-4-CF3) = N[C@@H](CCc1ccc(C(F)(F)F)c(Cl)c1)C(=O)O; NPrPhe(4-CF3) = CCCN[C@@H](Cc1ccc(C(F)(F)F)cc1)C(=O)O; Piperazinyl(4-(3-oxetanyl)) = C1OCC1N1CCN(*)CC1; NMeGly(cPent) = CN[C@H](C(=O)O)C1CCCC1; NMeD = CN[C@@H](CC(=O)O)C(=O)O; NMeL = CN[C@@H](CC(C)C)C(=O)O; Ac5c = NC1(C(=O)O)CCCC1; X25 = CC1(C)CCN(*)C1; Sar = CNCC(=O)O
# Assays:
# [1] = target: GDP-bound HRAS wild-type protein (Homo sapiens, UniProt P01112); assay: Binding to HRAS by surface plasmon resonance (SPR), Single Cycle Kinetics; settings: KD ratio HRAS/KRAS
# GDP-bound HRAS wild-type protein, sequence (P01112 whole entry): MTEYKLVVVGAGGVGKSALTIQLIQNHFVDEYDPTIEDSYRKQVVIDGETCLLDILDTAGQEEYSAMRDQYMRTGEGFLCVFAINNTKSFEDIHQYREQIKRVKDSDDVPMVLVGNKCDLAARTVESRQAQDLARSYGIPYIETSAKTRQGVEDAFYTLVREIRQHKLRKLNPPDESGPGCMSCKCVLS
# [2] = target: GDP-bound NRAS wild-type protein (Homo sapiens, UniProt P01111); assay: Binding to NRAS by surface plasmon resonance (SPR), Single Cycle Kinetics; settings: KD ratio NRAS/KRAS
# GDP-bound NRAS wild-type protein, sequence (P01111 whole entry): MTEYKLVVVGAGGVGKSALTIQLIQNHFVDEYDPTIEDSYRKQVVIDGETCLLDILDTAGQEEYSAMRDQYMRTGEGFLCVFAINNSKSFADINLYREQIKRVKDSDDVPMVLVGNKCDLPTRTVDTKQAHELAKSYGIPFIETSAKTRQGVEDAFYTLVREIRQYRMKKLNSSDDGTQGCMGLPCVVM
# [3] = SPR, GDP-bound wild-type proteins
structure (smiles),measurement,setting,value
CC[C@H](C)[C@@H]1NC(=O)[C@H](CC(C)C)N(C)C(=O)C[C@@H](C(=O)N2CCOCC2)N(C)C(=O)[C@H](C2CCCC2)N(C)C(=O)C2(CCCC2)NC(=O)[C@@H]2CCCN2C(=O)[C@H](CCc2cc(F)c(C(F)(F)F)c(F)c2)NC(=O)CN(C)C(=O)[C@H](Cc2ccc(C(F)(F)F)cc2)N2CCCCC[C@@H](C2=O)N(C)C(=O)[C@H](C)NC1=O [PP0481],HRAS/KRAS (ratio of KD value with respect to GDP-bound HRAS wild-type protein to KD value with respect to KRAS),[1]; SPR,B (a compound having 3 or more and less than 10 is denoted as B)
same,NRAS/KRAS (ratio of KD value with respect to GDP-bound NRAS wild-type protein to KD value with respect to KRAS),[2]; SPR,B (a compound having 3 or more and less than 10 is denoted as B)
CCCN1C(=O)CN(C)C(=O)CN(C)C(=O)[C@H]([C@@H](C)CC)NC(=O)[C@H](CC(C)C)N(C)C(=O)C[C@@H](C(=O)N2CCN(C3COC3)CC2)N(C)C(=O)[C@H](C2CCCC2)N(C)C(=O)C2(CCCC2)NC(=O)[C@@H]2CCCN2C(=O)[C@H](CCc2ccc(C(F)(F)F)c(Cl)c2)NC(=O)CN(C)C(=O)[C@@H]1Cc1ccc(C(F)(F)F)cc1 [PP0175] ([NMeL]I[Sar][Sar][NPrPhe(4-CF3)][Sar][hPhe(3-Cl-4-CF3)]P[Ac5c][NMeGly(cPent)][NMeD]-{Piperazinyl(4-(3-oxetanyl))}; lactam N-11),HRAS/KRAS (ratio of KD for GDP-bound HRAS wild-type to KD for KRAS),[1]; SPR,B (a compound having 3 or more and less than 10 is denoted as B)
same,NRAS/KRAS (ratio of KD for GDP-bound NRAS wild-type to KD for KRAS),[2]; SPR,B (a compound having 3 or more and less than 10 is denoted as B)
CC[C@H](C)[C@@H]1NC(=O)[C@H](CC(C)C)N(C)C(=O)C[C@@H](C(=O)N2CCOCC2)NC(=O)[C@H](C2CCCC2)N(C)C(=O)C2(CCCC2)NC(=O)[C@@H]2CCCN2C(=O)[C@H](CCc2cc(F)c(C(F)(F)F)c(F)c2)NC(=O)CN(C)C(=O)[C@H](Cc2ccc(C(F)(F)F)cc2)N2CCCC[C@@H](C2=O)N(C)C(=O)CN(C)C1=O [PP0541],HRAS/KRAS (ratio of KD value with respect to GDP-bound HRAS wild-type protein to KD value with respect to KRAS),[1]; SPR,B (a compound having 3 or more and less than 10 is denoted as B)
same,NRAS/KRAS (ratio of KD value with respect to GDP-bound NRAS wild-type protein to KD value with respect to KRAS),[2]; SPR,B (a compound having 3 or more and less than 10 is denoted as B)
CCCN1C(=O)CN(C)C(=O)CN(C)C(=O)[C@H]([C@@H](C)CC)NC(=O)[C@H](CC(C)C)N(C)C(=O)C[C@@H](C(=O)N2CCC(C)(C)C2)N(C)C(=O)[C@H](C2CCCC2)N(C)C(=O)C2(CCCC2)NC(=O)[C@@H]2CCCN2C(=O)[C@H](CCc2ccc(C(F)(F)F)c(Cl)c2)NC(=O)CN(C)C(=O)[C@@H]1Cc1ccc(C(F)(F)F)cc1 [PP0177] ([NMeL]I[Sar][Sar][NPrPhe(4-CF3)][Sar][hPhe(3-Cl-4-CF3)]P[Ac5c][NMeGly(cPent)][NMeD]-X25; lactam N-11),HRAS/KRAS (ratio of KD for GDP-bound HRAS wild-type to KD for KRAS),[1]; SPR,C (A compound having a KD ratio of 0.1 or more and less than 3 is denoted as C)
same,NRAS/KRAS (ratio of KD for GDP-bound NRAS wild-type to KD for KRAS),[2]; SPR,B (a compound having 3 or more and less than 10 is denoted as B)
CCC[C@H]1C(=O)N[C@@H]([C@@H](C)CC)C(=O)N(C)CC(=O)N(C)[C@H]2C/C=C\CCN(C2=O)[C@@H](Cc2ccc(C(F)F)cc2)C(=O)N(C)CC(=O)N[C@@H](CCc2ccc(Cl)c(Cl)c2)C(=O)N2C[C@H](OCC)C[C@H]2C(=O)NC2(CC(C)(C)C2)C(=O)N(C)[C@@H](C(CC)CC)C(=O)N(C)[C@H](C(=O)N(C)C)CC(=O)N1C [PP2531],HRAS/KRAS (ratio of KD value with respect to GDP-bound HRAS wild-type protein to KD value with respect to KRAS),[1]; class symbols,A (a compound having 10 or more and less than 20 is denoted as A)
same,NRAS/KRAS (ratio of KD value with respect to GDP-bound NRAS wild-type protein to KD value with respect to KRAS),[2]; class symbols,AA (a compound having 20 or more is denoted as AA)
CC[C@H](C)[C@@H]1NC(=O)[C@@H]2CCCc3ccc(cc3)C[C@@H](C(=O)N(C)CC(=O)N[C@@H](CCc3ccc(C(F)(F)F)c(OC)c3)C(=O)N3C[C@H](OC4CCC4)C[C@H]3C(=O)NC3(CC(C)(C)C3)C(=O)N(C)[C@@H](C3CCCC3)C(=O)N(C)[C@H](C(=O)N(C)CC)CC(=O)N2C)N2CC/C=C\C[C@@H](C2=O)N(C)C(=O)CN(C)C1=O [PP3085],HRAS/KRAS (ratio of KD value with respect to GDP-bound HRAS wild-type protein to KD value with respect to KRAS),[1]; [3],B (a compound having 3 or more and less than 10 is denoted as B)
same,NRAS/KRAS (ratio of KD value with respect to GDP-bound NRAS wild-type protein to KD value with respect to KRAS),[2]; [3],A (a compound having 10 or more and less than 20 is denoted as A)
"CCC[C@H]1C(=O)N[C@@H]([C@@H](C)CC)C(=O)N(C)CC(=O)N(C)[C@H]2C/C=C\CCN(C2=O)[C@@H](Cc2ccc(C)cc2)C(=O)N(C)CC(=O)N[C@@H](CCc2ccc(C(F)(F)F)c(OC)c2)C(=O)N2C[C@H](OCC)C[C@H]2C(=O)N(C)C2(CCC2)C(=O)N(C)[C@@H](C2CCCC2)C(=O)N(C)[C@H](C(=O)N2CCCC2)CC(=O)N1C [PP3106, (2S,8S,12R,14S,20S,23S,27S,30S,36S,38Z)-20-cyclopentyl-12-ethoxy-8-[2-[3-methoxy-4-(trifluoromethyl)phenyl]ethyl]-4,16,19,22,26,32,35-heptamethyl-30-[(1S)-1-methylpropyl]-27-propyl-2-(p-tolylmethyl)-23-(pyrrolidine-1-carbonyl)spiro[1,4,7,10,16,19,22,26,29,32,35-undecazatricyclo[34.5.1.0^10,14]dotetracont-38-ene-17,1′-cyclobutane]-3,6,9,15,18,21,25,28,31,34,42-undecone]",HRAS/KRAS (ratio of KD value with respect to GDP-bound HRAS wild-type protein to KD value with respect to KRAS),[1]; [3],A (a compound having 10 or more and less than 20 is denoted as A)
same,NRAS/KRAS (ratio of KD value with respect to GDP-bound NRAS wild-type protein to KD value with respect to KRAS),[2]; [3],A (a compound having 10 or more and less than 20 is denoted as A)
